From patent publication US20240165180A1, “Processes for Extracting Muscimol from Amanita Muscaria” (priority 2021, published 2024)

Assay: Heat exposure of muscimol during distillation
Type: physicochemical
Details: after being exposed to heat for 3 hours (distillation)
Procedure: In one example, distillation is performed for about 0.5 hours to about 6 hours. In some embodiments, distillation is performed for about 5 to about 6 hours. In another example, it is performed for about 2 to about 3 hours. In another example, it is performed for about 3 hours. […] However, in some embodiments, further distillation beyond 3 hours, such as 4 hours, 5 hours, 6 hours, or more than 6 hours, may be advantageous. In some embodiments, the resulting muscimol extract is a liquid.
The refluxed extract was then distilled for a period of 3 hours. Samples were taken prior to distillation, after 1 hour, 2 hours, and at 3 hours of distillation, as discussed further below. After distillation, the filtrate was cooled to 3° C. in a refrigerator. After about 3 hours of cooling, there was coagulated material suspended in the filtrate. The coagulated material in the filtrate was removed via vacuum filtration through the vacuum filtration setup described above (without the cheesecloth). After filtration, the filter setup was rinsed under vacuum with 30 mL of distilled water into the filtrate.

In the case of `NCc1cc(=O)[nH]o1` [muscimol, 5-(Aminomethyl)-1,2-oxazol-3(2H)-one], the stability to heat is reported as “begins degrading (to a very minimal degree)”.
